ChEMBL document CHEMBL6078713, “Synthesis and mechanistic studies of 4-aminoquinoline-Isatin molecular hybrids and Schiff's bases as promising antimicrobial agents” (Eur J Med Chem, 2025)

Columns and labels:
Escherichia coli [1] = assay: Antibacterial activity against Escherichia coli MTCC 443 assessed as diameter of zone of inhibition at 500 ug/ml by agar disk diffusion method; format: functional; conditions: read-out: DIZ
Enterococcus faecalis [2] = assay: Antibacterial activity against Enterococcus faecalis MTCC 439 assessed as diameter of zone of inhibition at 500 ug/ml by agar disk diffusion method; format: functional; conditions: read-out: DIZ
Bacillus subtilis [3] = assay: Antibacterial activity against Bacillus subtilis MTCC 736 assessed as diameter of zone of inhibition at 500 ug/ml by agar disk diffusion method; format: functional; conditions: read-out: DIZ
Staphylococcus aureus [4] = assay: Antibacterial activity against Staphylococcus aureus MTCC 902 assessed as diameter of zone of inhibition at 500 ug/ml by agar disk diffusion method; format: functional; conditions: read-out: DIZ
Pseudomonas aeruginosa [5] = assay: Antibacterial activity against Pseudomonas aeruginosa MTCC 2453 assessed as diameter of zone of inhibition at 500 ug/ml by agar disk diffusion method; format: functional; conditions: read-out: DIZ
Salmonella typhi [6] = assay: Antibacterial activity against Salmonella typhi assessed as diameter of zone of inhibition at 500 ug/ml by agar disk diffusion method; format: functional, Salmonella enterica subsp. enterica serovar Typhi; conditions: Salmonella enterica, read-out: DIZ
Escherichia coli [7] = assay: Antibacterial activity against Escherichia coli MTCC 443 assessed as inhibition of bacterial growth incubated overnight by serial dilution based spectrophotometer; format: functional
Enterococcus faecalis [8] = assay: Antibacterial activity against Enterococcus faecalis MTCC 439 assessed as inhibition of bacterial growth incubated overnight by serial dilution based spectrophotometer; format: functional
Bacillus subtilis [9] = assay: Antibacterial activity against Bacillus subtilis MTCC 736 assessed as inhibition of bacterial growth incubated overnight by serial dilution based spectrophotometer; format: functional
Staphylococcus aureus [10] = assay: Antibacterial activity against Staphylococcus aureus MTCC 902 assessed as inhibition of bacterial growth incubated overnight by serial dilution based spectrophotometer; format: functional
Pseudomonas aeruginosa [11] = assay: Antibacterial activity against Pseudomonas aeruginosa MTCC 2453 assessed as inhibition of bacterial growth incubated overnight by serial dilution based spectrophotometer; format: functional
Salmonella typhi [12] = assay: Antibacterial activity against Salmonella typhi assessed as inhibition of bacterial growth incubated overnight by serial dilution based spectrophotometer; format: functional, Salmonella enterica subsp. enterica serovar Typhi; conditions: Salmonella enterica
Escherichia coli [13] = assay: Bactericidal activity against Escherichia coli MTCC 443 assessed as inhibition of bacterial growth incubated overnight; format: functional
Enterococcus faecalis [14] = assay: Bactericidal activity against Enterococcus faecalis MTCC 439 assessed as inhibition of bacterial growth incubated overnight; format: functional
Bacillus subtilis [15] = assay: Bactericidal activity against Bacillus subtilis MTCC 736 assessed as inhibition of bacterial growth incubated overnight; format: functional
Staphylococcus aureus [16] = assay: Bactericidal activity against Staphylococcus aureus MTCC 902 assessed as inhibition of bacterial growth incubated overnight; format: functional
Pseudomonas aeruginosa [17] = assay: Bactericidal activity against Pseudomonas aeruginosa MTCC 2453 assessed as inhibition of bacterial growth incubated overnight; format: functional
Salmonella typhi [18] = assay: Bactericidal activity against Salmonella typhi assessed as inhibition of bacterial growth incubated overnight; format: functional, Salmonella enterica subsp. enterica serovar Typhi; conditions: Salmonella enterica
Escherichia coli [19] = assay: Ratio of MBC for antibacterial activity against Escherichia coli MTCC 443 to MIC for bactericidal activity against Escherichia coli MTCC 443; format: functional
Bacillus subtilis [20] = assay: Ratio of MBC for antibacterial activity against Bacillus subtilis MTCC 736 to MIC for bactericidal activity against Bacillus subtilis MTCC 736; format: functional
Staphylococcus aureus [21] = assay: Ratio of MBC for antibacterial activity against Staphylococcus aureus MTCC 902 to MIC for bactericidal activity against Staphylococcus aureus MTCC 902; format: functional
Acinetobacter baumannii = assay: Antibacterial activity against Acinetobacter baumannii assessed as inhibition of bacterial growth; format: functional

Clc1ccc2c(NCC/N=C/c3ccco3)ccnc2c1
> 512 µg/mL: MBC (Enterococcus faecalis [14]) | MBC (Pseudomonas aeruginosa [17]) | MBC (Salmonella typhi [18])
512 µg/mL: MIC (Escherichia coli [7]) | MIC (Enterococcus faecalis [8]) | MIC (Pseudomonas aeruginosa [11]) | MIC (Salmonella typhi [12]) | MBC (Escherichia coli [13])
9 mm: zone of inhibition at 500 µg/mL (Escherichia coli [1]) | zone of inhibition at 500 µg/mL (Enterococcus faecalis [2]) | zone of inhibition at 500 µg/mL (Pseudomonas aeruginosa [5]) | zone of inhibition at 500 µg/mL (Salmonella typhi [6])
10 mm: zone of inhibition at 500 µg/mL (Bacillus subtilis [3]) | zone of inhibition at 500 µg/mL (Staphylococcus aureus [4])
1: Ratio (Escherichia coli [19]) | Ratio (Bacillus subtilis [20]) | Ratio (Staphylococcus aureus [21])
256 µg/mL: MIC (Bacillus subtilis [9]) | MIC (Staphylococcus aureus [10]) | MBC (Bacillus subtilis [15]) | MBC (Staphylococcus aureus [16])

Cc1ccc(N/N=C/c2ccc(CN3CCN(c4ccnc5cc(Cl)ccc45)CC3)cc2)cc1
2 µg/mL: MIC (Acinetobacter baumannii)
